Assay results from patent publication US20230121689A1, “CEPHALOSPORIN ANTIBACTERIAL COMPOUND AND PHARMACEUTICAL APPLICATION THEREOF” (priority 2020, published 2023).
Values after ≈ are worked out from the molar mass of the structure shown. Read-outs that look alike come from different tables or passages of the source.

What was measured:
Type in all cases: cell-based
[1] = system: Carbapenem-resistant Acinetobacter baumannii (CRAB); assay: Test Example 1: antibacterial activity test (MIC)
Procedure: (§1) The test compounds were diluted in a gradient and used for an MIC assay on the test strains. The test compounds at an initial assay concentration of 32 μg/mL were diluted in a 2-fold gradient (11 concentration points in total), and two duplicate wells were set for each concentration. Additional wells without drug dosing were set as growth controls. The minimum inhibitory concentration (MIC) assay was performed with reference to the Clinical and Laboratory Standards Institute (CLSI) guidelines.
(§2) After the frozen strains were subcultured, a single colony was picked and re-suspended in normal saline or sterile water in a tube. The bacterial suspension was vortexed and adjusted to 0.5 McF using a spectrophotometer at the wavelength of 530 nm. The bacterial solution was taken by a pipette, added to a culture medium, diluted and mixed well, and seeded to a bacterial assay plate.
(§3) The 96-well plate was affixed with a disposable sealing film, shaken and mixed well, and visually observed using a plate reader. The minimum concentration of the compounds capable of inhibiting the growth of bacteria was defined as MIC as compared to the growth controls.

[2] = system: Carbapenem-resistant Enterobacteriaceae (CRE); assay: Test Example 1: antibacterial activity test (MIC)
Procedure: as §1, §2, §3

[3] = system: Carbapenem-resistant Pseudomonas aeruginosa (CRPA); assay: Test Example 1: antibacterial activity test (MIC)
Procedure: as §1, §2, §3

[4] = system: Carbapenem-resistant Acinetobacter baumannii (CRAB, Acinetobacter baumannii); assay: Test Example 2: antibacterial activity test (MIC); details: ID-CAMHB, read-out: ID-CAMHB, MIC
Procedure: (§4) 1. The test compounds were dissolved in sterile normal saline, vortexed for uniformly mixing, and diluted in a 2-fold dilution with the sterile normal saline (11 concentration points in total). The test concentration range was 32-0.031 μg/mL, and two duplicate wells were set for each concentration. Additional wells without drug dosing were set as growth controls. 2. 4 μL of the diluent was added to 196 μL of the bacterial suspension in a 96-well plate (the bacterial count in the bacterial suspension was 2-8×10^5 colony forming units/mL). 3.
(§5) The minimum inhibitory concentration (MIC) assay was performed with reference to the Clinical and Laboratory Standards Institute (CLSI) guidelines.

[5] = system: Carbapenem-resistant Enterobacteriaceae (CRE, Klebsiella pneumoniae); assay: Test Example 2: antibacterial activity test (MIC); details: ID-CAMHB, read-out: ID-CAMHB, MIC
Procedure: as §4, §5

[6] = system: Carbapenem-resistant Pseudomonas aeruginosa (CRPA, Pseudomonas aeruginosa); assay: Test Example 2: antibacterial activity test (MIC); details: ID-CAMHB, read-out: ID-CAMHB, MIC
Procedure: as §4, §5

[7] = system: Control Strain Pseudomonas aeruginosa ATCC 27853; assay: Test Example 2: antibacterial activity test (MIC); details: ATCC27853, ID-CAMHB, ATCC 27853, read-out: ID-CAMHB, MIC
Procedure: as §4, §5

[8] = system: Control strain Escherichia coli ATCC 25922; assay: Test Example 2: antibacterial activity test (MIC); details: ATCC25922, ID-CAMHB, ATCC 25922, read-out: ID-CAMHB, MIC
Procedure: as §4, §5

[9] = FDA-CDC AR-BANK #0036 (strB, OXA-65, OXA-24, strA, sul2)
[10] = FDA-CDC AR-BANK #0052 (OXA-58, OXA-100, sul2)
[11] = FDA-CDC AR-BANK #0063 (OXA-23, OXA-65, OXA-24, sul2)
[12] = FDA-CDC AR-BANK #0070 (OXA-58, OXA-100, sul2)
[13] = FDA-CDC AR-BANK #0101 (strB, OXA-65, OXA-24, strA, sul2)
[14] = FDA-CDC AR-BANK #0361 (TEM-1; SHV-12; KPC-2)
[15] = FDA-CDC AR-BANK #0362 (TEM-1; SHV-11; KPC-2)
[16] = FDA-CDC AR-BANK #0363 (TEM-1; SHV-12; KPC-2)
[17] = FDA-CDC AR-BANK #0438 (aph(3′)-Ia, dfrA12, KPC-3, OmpK35, oqxA, oqxB, SHV-11)
[18] = FDA-CDC AR-BANK #0453 (KPC-3, OmpK35, oqxA, oqxB, SHV-11, TEM-1B)
[19] = FDA-CDC AR-BANK #0439 (aac(6′)-Il, aadA1b, BCR1, IMP-18, OXA-50)
[20] = FDA-CDC AR-BANK #0444 (aac(6′)-Il, dfrB5, OXA-4, tet(G), VIM-2)
[21] = FDA-CDC AR-BANK #0457 (aadA6, VIM-2)

Compound | MIC ([1]; CRAB strain No. 100085) | MIC ([1]; CRAB strain No. 100333) | MIC ([1]; CRAB strain No. 110440) | MIC ([1]; CRAB strain No. 110477) | MIC ([1]; CRAB strain No. 110517) | MIC ([2]; CRE strain No. 100109) | MIC ([2]; CRE strain No. 100186) | MIC ([2]; CRE strain No. 110502) | MIC ([2]; CRE strain No. 110525) | MIC ([2]; CRE strain No. 311277) | MIC ([3]; CRPA strain No. 100110) | MIC ([3]; CRPA strain No. 110163) | MIC ([3]; CRPA strain No. 110224) | MIC ([3]; CRPA strain No. 110358) | MIC ([3]; CRPA strain No. 110390) | MIC [4, 9] | MIC [4, 10] | MIC [4, 11] | MIC [4, 12] | MIC [4, 13] | also measured
CC(C)(O/N=C(\C(=O)N[C@@H]1C(=O)N2C(C(=O)[O-])=C(C[N+]3(CCCC[C@H](N)C(=O)O)CCCC3)CSC12)c1csc(N)n1)C(=O)O (stereo partly shown) [Compound 1] | > 32 µg/mL | > 32 µg/mL | > 32 µg/mL | > 32 µg/mL | > 32 µg/mL | > 32 µg/mL | > 32 µg/mL | > 32 µg/mL | > 32 µg/mL | > 32 µg/mL | 16 µg/mL (≈ 24 µM) | > 32 µg/mL | 32 µg/mL (≈ 47.9 µM) | > 32 µg/mL | > 32 µg/mL |  |  |  |  |  | 
CON(CC[N+]1(CC2=C(C(=O)O)N3C(=O)[C@@H](NC(=O)/C(=N\OC(C)(C)C(=O)O)c4csc(N)n4)[C@H]3SC2)CCCC1)C(=O)c1ccc(O)c(O)c1Cl [Compound 3] | 3 µg/mL | 6 µg/mL | 4 µg/mL | 4 µg/mL | 1 µg/mL | 3 µg/mL | 6 µg/mL | > 32 µg/mL | 16 µg/mL | 8 µg/mL | 0.562 µg/mL | 1 µg/mL | 1 µg/mL | 2 µg/mL | 2 µg/mL |  |  |  |  |  | 
CC(C)(O/N=C(\C(=O)N[C@@H]1C(=O)N2C(C(=O)O)=C(C[N+]3(CCNC(=S)Nc4ccc(O)c(O)c4Cl)CCCC3)CS[C@H]12)c1csc(N)n1)C(=O)O [Compound 4] | > 32 µg/mL | > 32 µg/mL | > 32 µg/mL | > 32 µg/mL | > 32 µg/mL | > 32 µg/mL | > 32 µg/mL | > 32 µg/mL | > 32 µg/mL | > 32 µg/mL | 16 µg/mL | > 32 µg/mL | > 32 µg/mL | > 32 µg/mL | > 32 µg/mL |  |  |  |  |  | 
CC(=O)N(O)CC[N+]1(CC2=C(C(=O)O)N3C(=O)[C@@H](NC(=O)/C(=N\OC(C)(C)C(=O)O)c4csc(N)n4)[C@H]3SC2)CCCC1 [Compound 5] |  |  |  |  |  |  |  |  |  |  |  |  |  |  |  | > 32 µg/mL | > 32 µg/mL | > 32 µg/mL | > 32 µg/mL | > 32 µg/mL | MIC [5, 14]: > 32 µg/mL; MIC [5, 15]: > 32 µg/mL; MIC [5, 16]: > 32 µg/mL; MIC [5, 17]: > 32 µg/mL; MIC [5, 18]: > 32 µg/mL; MIC [6, 19]: > 32 µg/mL; MIC ([6]; FDA-CDC AR-BANK #0441 (KPC-2)): > 32 µg/mL; MIC [6, 20]: > 32 µg/mL; MIC [6, 21]: > 32 µg/mL; MIC [7]: > 32 µg/mL; MIC [8]: > 32 µg/mL
CC(C)(O/N=C(\C(=O)N[C@@H]1C(=O)N2C(C(=O)O)=C(C[N+]3(CCN(O)C(=O)c4ccc(O)c(O)c4Cl)CCCC3)CS[C@H]12)c1csc(N)n1)C(=O)O [Compound 6] | 3 µg/mL | 6 µg/mL | 4 µg/mL | 3 µg/mL | 1 µg/mL | 2 µg/mL | 1.5 µg/mL | 32 µg/mL | 4 µg/mL | 8 µg/mL | 0.063 µg/mL | 0.5 µg/mL | 0.625 µg/mL | 4 µg/mL | 2 µg/mL |  |  |  |  |  | 
CC(C)(O/N=C(\C(=O)N[C@@H]1C(=O)N2C(C(=O)O)=C(C[N+]3(CCNC(=S)c4ccc(O)c(O)c4Cl)CCCC3)CS[C@H]12)c1csc(N)n1)C(=O)O [Compound 7] |  |  |  |  |  |  |  |  |  |  |  |  |  |  |  | 2 µg/mL | 0.25 µg/mL | > 32 µg/mL | 0.125 µg/mL | 4 µg/mL | MIC [5, 14]: 1 µg/mL; MIC [5, 15]: 1 µg/mL; MIC [5, 16]: 0.5 µg/mL; MIC [5, 17]: 2 µg/mL; MIC [5, 18]: 4 µg/mL; MIC [6, 19]: 8 µg/mL; MIC ([6]; FDA-CDC AR-BANK #0441 (KPC-2)): 8 µg/mL; MIC [6, 20]: 32 µg/mL; MIC [6, 21]: 1 µg/mL; MIC [7]: 0.125 µg/mL; MIC [8]: 0.125 µg/mL
CC(C)(O/N=C(\C(=O)N[C@@H]1C(=O)N2C(C(=O)O)=C(C[N+]3(CCNC(=O)c4ccc5cc(O)c(O)cc5c4)CCCC3)CS[C@H]12)c1csc(N)n1)C(=O)O [Compound 8] |  |  |  |  |  |  |  |  |  |  |  |  |  |  |  | 0.25 µg/mL | 0.0625 µg/mL | 8 µg/mL | 0.125 µg/mL | 2 µg/mL | MIC [5, 14]: 2 µg/mL; MIC [5, 15]: 1 µg/mL; MIC [5, 16]: 0.25 µg/mL; MIC [5, 17]: 2 µg/mL; MIC [5, 18]: 2 µg/mL; MIC [6, 19]: 1 µg/mL; MIC ([6]; FDA-CDC AR-BANK #0441 (KPC-2)): 4 µg/mL; MIC [6, 20]: 4 µg/mL; MIC [6, 21]: 0.25 µg/mL; MIC [7]: 0.25 µg/mL; MIC [8]: 0.25 µg/mL
CC(C)(O/N=C(\C(=O)N[C@@H]1C(=O)N2C(C(=O)O)=C(C[N+]3(CCNC(=N)c4ccc(O)c(O)c4Cl)CCCC3)CS[C@H]12)c1csc(N)n1)C(=O)O [Compound 9] |  |  |  |  |  |  |  |  |  |  |  |  |  |  |  | > 32 µg/mL | > 32 µg/mL | > 32 µg/mL | > 32 µg/mL | > 32 µg/mL | MIC [5, 14]: > 32 µg/mL; MIC [5, 15]: 16 µg/mL; MIC [5, 16]: > 32 µg/mL; MIC [5, 17]: > 32 µg/mL; MIC [5, 18]: > 32 µg/mL; MIC [6, 19]: > 32 µg/mL; MIC ([6]; FDA-CDC AR-BANK #0441 (KPC-2)): > 32 µg/mL; MIC [6, 20]: > 32 µg/mL; MIC [6, 21]: > 32 µg/mL; MIC [7]: > 32 µg/mL; MIC [8]: 16 µg/mL
